Laboratory results: patent US20230017045A1, “PYRIDINE AND PYRIMIDINE CARBOXYLATE HERBICIDES AND METHODS OF USE THEREOF” (Dow AgroSciences LLC, priority 2017, published 2023)
Where two headings read alike, the source gives them in different places.

Test system: test plant species
Assay: Post-emergent herbicidal activity test (greenhouse, foliar spray, visual growth reduction)
Assay type: in vivo
Settings: post-emergence, 336 h, 140 g ai/ha
In short: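 Scoring used a 0 to 100 percent visual scale of growth reduction against solvent-treated controls, read 14 d after spraying. Applications went onto plants at first or second true leaf stage, 187 L/ha, with crop oil concentrate and X-77 surfactant in the carrier. Post-treatment watering was by subirrigation to avoid wash-off.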

[1] = ALOMY: blackgrass (Alopecurus myosuroides), 14 days after application, read-out: Visual Growth Reduction (%) 14 Days After Application, ALOMY
[2] = AMARE: redroot pigweed (Amaranthus retroflexus), 14 days after application, read-out: Visual Growth Reduction (%) 14 Days After Application, AMARE
[3] = AVEFA: wild oat (Avena fatua), 14 days after application, read-out: Visual Growth Reduction (%) 14 Days After Application, AVEFA
[4] = CHEAL: lambsquarters (Chenopodium album), 14 days after application, read-out: Visual Growth Reduction (%) 14 Days After Application, CHEAL
[5] = CIRAR: canada thistle (Cirsium arvense), 14 days after application, read-out: Visual Growth Reduction (%) 14 Days After Application, CIRAR
[6] = CYPES: yellow nutsedge (Cyperus esculentus), 14 days after application, read-out: Visual Growth Reduction (%) 14 Days After Application, CYPES
[7] = DIGSA: crabgrass (Digitaria sanguinalis), 14 days after application, read-out: Visual Growth Reduction (%) 14 Days After Application, DIGSA
[8] = ECHCG: barnyardgrass (Echinochloa crus-galli), 14 days after application, read-out: Visual Growth Reduction (%) 14 Days After Application, ECHCG
[9] = IPOHE: ivy-leaf morning glory (Ipomoea hederacea), 14 days after application, read-out: Visual Growth Reduction (%) 14 Days After Application, IPOHE
[10] = KCHSC: kochia (Bassia scoparia), 14 days after application, read-out: Visual Growth Reduction (%) 14 Days After Application, KCHSC
[11] = ORYSA: rice (Oryza sativa), 14 days after application, read-out: Visual Growth Reduction (%) 14 Days After Application, ORYSA
[12] = SETFA: giant foxtail (Setaria faberi), 14 days after application, read-out: Visual Growth Reduction (%) 14 Days After Application, SETFA
[13] = SORVU: grain sorghum (Sorghum vulgare), 14 days after application, read-out: Visual Growth Reduction (%) 14 Days After Application, SORVU
[14] = TRZAS: wheat, spring (Triticum aestivum), 14 days after application, read-out: Visual Growth Reduction (%) 14 Days After Application, TRZAS
[15] = STEME: common chickweed (Stellaria media), 14 days after application, read-out: Visual Growth Reduction (%) 14 Days After Application, STEME
[16] = blackgrass (Alopecurus myosuroides), 14 Days After Application, read-out: Visual Growth Reduction (%) ALOMY
[17] = canada thistle (Cirsium arvense), 14 Days After Application, read-out: Visual Growth Reduction (%) CIRAR
[18] = crabgrass (Digitaria sanguinalis), 14 Days After Application, read-out: Visual Growth Reduction (%) DIGSA
[19] = lambsquarters (Chenopodium album), 14 Days After Application, read-out: Visual Growth Reduction (%) CHEAL
[20] = redroot pigweed (Amaranthus retroflexus), 14 Days After Application, read-out: Visual Growth Reduction (%) AMARE
[21] = wild oat (Avena fatua), 14 Days After Application, read-out: Visual Growth Reduction (%) AVEFA
[22] = yellow nutsedge (Cyperus esculentus), 14 Days After Application, read-out: Visual Growth Reduction (%) CYPES

| SMILES | pest or weed control at 140 g/ha [1] [%] | pest or weed control at 140 g/ha [2] [%] | pest or weed control at 140 g/ha [3] [%] | pest or weed control at 140 g/ha [4] [%] | pest or weed control at 140 g/ha [5] [%] | pest or weed control at 140 g/ha [8] [%] | pest or weed control at 140 g/ha [9] [%] | pest or weed control at 140 g/ha [10] [%] | pest or weed control at 140 g/ha [11] [%] | pest or weed control at 140 g/ha [12] [%] | pest or weed control at 140 g/ha [13] [%] | pest or weed control at 140 g/ha [14] [%] | pest or weed control at 140 g/ha [15] [%] | pest or weed control at 140 g/ha [16] [%] | pest or weed control at 140 g/ha [17] [%] | pest or weed control at 140 g/ha [18] [%] | pest or weed control at 140 g/ha [19] [%] | pest or weed control at 140 g/ha [20] [%] | pest or weed control at 140 g/ha [21] [%] | pest or weed control at 140 g/ha [22] [%] | also measured |
| --- | --- | --- | --- | --- | --- | --- | --- | --- | --- | --- | --- | --- | --- | --- | --- | --- | --- | --- | --- | --- | --- |
| COC(=O)c1nc(-c2ccc(C(C)(F)F)cc2Cl)ccc1Cl [F112, Methyl 3-chloro-6-(2-chloro-4-(1,1-difluoroethyl)phenyl) picolinate] | 60 to 74 | 95 to 100 | 95 to 100 | 95 to 100 | 95 to 100 | 75 to 84 | 95 to 100 | 95 to 100 | 0 to 29 | 60 to 74 | 95 to 100 | 60 to 74 | – | – | – | – | – | – | – | – | pest or weed control at 140 g/ha [6]: 45 to 59%; pest or weed control at 140 g/ha [7]: 85 to 94% |
| Cc1cc(C(F)(F)F)cc(Cl)c1-c1ccc(Cl)c(C(=O)O)n1 [F259, 3-Chloro-6-(2-chloro-6-methyl-4-(trifluoromethyl)phenyl)picolinic acid] | – | – | – | – | – | 45 to 59 | 95 to 100 | 60 to 74 | 0 to 29 | 75 to 84 | 85 to 94 | 45 to 59 | 0 to 29 | 0 to 29 | 75 to 84 | 60 to 74 | 75 to 84 | 95 to 100 | 0 to 29 | 0 to 29 | – |
| COC(=O)c1nc(-c2cc(F)c(C(F)(F)F)cc2Cl)ccc1Cl [F243, Methyl 3-chloro-6-(2-chloro-5-fluoro-4-(trifluoromethyl)phenyl)picolinate] | – | – | – | – | – | 95 to 100 | 95 to 100 | 75 to 84 | 0 to 29 | 95 to 100 | 95 to 100 | 85 to 94 | 0 to 29 | 85 to 94 | 95 to 100 | 95 to 100 | 95 to 100 | 95 to 100 | 75 to 84 | 85 to 94 | – |
| COC(=O)c1nc(-c2ccc(C(F)(F)F)cc2C(N)=O)c(Cl)cc1Cl [F147, Methyl 6-(2-carbamoyl-4-(trifluoromethyl)phenyl)-3,5-dichloropicolinate] | 0 to 29 | 45 to 59 | 0 to 29 | 30 to 44 | 0 to 29 | 0 to 29 | 30 to 44 | 0 to 29 | 0 to 29 | 0 to 29 | 0 to 29 | 0 to 29 | 0 to 29 | – | – | – | – | – | – | – | pest or weed control at 140 g/ha [6]: 0 to 29%; pest or weed control at 140 g/ha [7]: 0 to 29% |
| COC(=O)c1nc(-c2ccc(O)cc2Cl)ccc1Cl [F355, methyl 3-chloro-6-(2-chloro-4-hydroxyphenyl)picolinate] | – | – | – | – | – | 0 to 29 | 0 to 29 | 0 to 29 | 0 to 29 | 0 to 29 | 0 to 29 | 0 to 29 | 0 to 29 | 0 to 29 | 75 to 84 | 0 to 29 | 0 to 29 | 0 to 29 | 0 to 29 | 0 to 29 | – |
